From patent publication US12414961B2, “Substituted nucleosides and nucleotides for treating viral infections” (priority 2013, dated 2025)

Experiments:
CEM = assay: Cytotoxicity (CC50) CEM; settings: read-out: Cytotoxicity (CC50 uM) CEM; CEM
Huh-7 = assay: Cytotoxicity (CC50) Huh-7; settings: read-out: Cytotoxicity (CC50 uM) Huh-7; Huh-7
HepG2 = assay: Cytotoxicity (CC50) HepG2; settings: read-out: Cytotoxicity (CC50 uM) HepG2; HepG2
Huh-7 cells = assay: Cytotoxicity in Huh-7 cells of the HCV replicon assay; settings: read-out: Huh-7 cells (CC50 uM)
GT1b replicon cells = assay: Cytotoxicity in GT1b replicon cells; type: cell-based
Influenza A H1N1 = Influenza A H1N1 antiviral assay; type: cell-based; settings: Influenza A virus, H1N1, read-out: Influenza A H1N1 EC50
Influenza A H3N2 = Influenza A H3N2 antiviral assay; type: cell-based; settings: Influenza A virus, H3N2, read-out: Influenza A H3N2 EC50
[1] = test system: Influenza A H5N1 (low path); assay: microbe, parasite or virus in culture; type: cell-based; settings: H5N1, read-out: Influenza A H5N1 (low path) EC50
Influenza B = Influenza B antiviral assay; type: cell-based; settings: Influenza B virus
RSV = RSV antiviral assay; type: cell-based; settings: human respiratory syncytial virus
SARS = assay: microbe, parasite or virus in culture; type: cell-based; settings: Severe acute respiratory syndrome coronavirus, read-out: SARS EC50
Measles = Measles antiviral assay; type: cell-based, Measles virus; settings: Measles morbillivirus
CHIK Virus = CHIK Virus screening assay; type: cell-based, CHIKV; settings: Chikungunya virus, read-out: CHIK Virus EC50
Dengue Virus = Dengue Virus screening assay; type: cell-based, DENV
RVFV = assay: microbe, parasite or virus in culture; type: cell-based; settings: Rift Valley fever virus, read-out: RVFV EC50
Tacaribe Virus = assay: microbe, parasite or virus in culture; type: cell-based, TCRV; settings: Mammarenavirus tacaribeense, read-out: Tacaribe Virus EC50
VEEV = assay: microbe, parasite or virus in culture; type: cell-based; settings: Venezuelan equine encephalitis virus, read-out: VEEV EC50
West Nile Virus = West Nile Virus screening assay; type: cell-based, WNV; settings: read-out: West Nile Virus EC50
BxPC3 = assay: Cytotoxicity (CC50) BxPC3; settings: read-out: Cytotoxicity (CC50 uM) BxPC3; BxPC3
Cytotoxicity (CC50) CEM = settings: human, CEM cells
[2] = Cytotoxicity (CC50) Huh-7; settings: human, Huh-7 cells
[3] = Cytotoxicity (CC50) HepG2; settings: human, HepG2 cells
[4] = Cytotoxicity (CC50) BxPC3; settings: human, BxPC3 cells
[5] = Cytotoxicity in Vero cells (Dengue assay); settings: African green monkey
[6] = Cytotoxicity in Huh-7 cells (Dengue assay); settings: human, Huh-7 cells
Dengue Type 2 [7] = assay: Anti-Dengue virus cytoprotection assay, Huh-7 cells; settings: Huh-7, read-out: Dengue Type 2 Huh-7 Cells (EC50 uM)
Dengue Type 2 [8] = assay: Anti-Dengue virus cytoprotection assay, Vero cells; settings: read-out: Dengue Type 2 Vero Cells (EC50 uM)
A204 = assay: Cytotoxicity (CC50) A204; type: cell-based; settings: A204
IEC-6 = assay: Cytotoxicity (CC50) IEC-6; type: cell-based; settings: IEC-6

C[C@@]1(O)C(O)[C@@H](COP(=O)(O)O)O[C@H]1n1ccc(=O)[nH]c1=S (stereo partly shown)
CC50 (CEM): > 400 µM | CC50 (Huh-7): > 400 µM | CC50 (HepG2): > 400 µM | CC50 (Huh-7 cells): > 100 µM

CC(C)OC(=O)[C@H](C)N[P@](=O)(OC[C@H]1O[C@@H](n2ccc(=O)[nH]c2=S)[C@](C)(O)C1O)Oc1ccccc1 (stereo partly shown) [drawing 371]
CC50 (CEM): > 400 µM | CC50 (Huh-7): 252 µM | CC50 (HepG2): > 400 µM

CC(C)OC(=O)[C@H](C)N[P@](=O)(OC[C@H]1O[C@@H](n2ccc(=O)[nH]c2=O)[C@](C)(F)C1O)Oc1ccccc1 (stereo partly shown) [drawing 385]
CC50 (GT1b replicon cells): > 2 µM

CNc1ccn([C@@H]2O[C@H](CO)[C@H](O)C2F)c(=O)n1 (stereo partly shown) [EFVX-01853]
EC50 (Influenza A H1N1): > 100 µM | EC50 (Influenza A H3N2): > 100 µM | EC50 [1]: > 100 µM | EC50 (Influenza B): > 100 µM | EC50 (RSV): > 100 µM | EC50 (SARS): > 100 µM | EC50 (Measles): > 100 µM | EC50 (CHIK Virus): > 100 µg/mL | EC50 (Dengue Virus): > 100 µg/mL | EC50 (RVFV): > 100 µg/mL | EC50 (Tacaribe Virus): > 100 µg/mL | EC50 (VEEV): > 100 µg/mL | EC50 (West Nile Virus): > 100 µg/mL

CN(C)c1ccn([C@@H]2O[C@H](CO)[C@H](O)C2F)c(=O)n1 (stereo partly shown) [EFVX-01854]
EC50 (Influenza A H1N1): > 100 µM | EC50 (Influenza A H3N2): > 100 µM | EC50 [1]: > 100 µM | EC50 (Influenza B): > 100 µM | EC50 (RSV): > 100 µM | EC50 (SARS): > 100 µM | EC50 (Measles): > 100 µM | EC50 (CHIK Virus): > 100 µg/mL | EC50 (Dengue Virus): > 100 µg/mL | EC50 (RVFV): > 100 µg/mL | EC50 (Tacaribe Virus): > 100 µg/mL | EC50 (VEEV): > 100 µg/mL | EC50 (West Nile Virus): > 100 µg/mL

Nc1nc(=O)n([C@@H]2O[C@H](CO)[C@H](O)C2F)cc1CO (stereo partly shown) [EFVX-01856]
EC50 (Influenza A H1N1): > 100 µM | EC50 (Influenza A H3N2): > 100 µM | EC50 [1]: > 100 µM | EC50 (Influenza B): > 100 µM | EC50 (RSV): > 100 µM | EC50 (SARS): > 100 µM | EC50 (Measles): > 100 µM | EC50 (CHIK Virus): > 100 µg/mL | EC50 (Dengue Virus): > 100 µg/mL | EC50 (RVFV): > 100 µg/mL | EC50 (Tacaribe Virus): > 100 µg/mL | EC50 (VEEV): > 100 µg/mL | EC50 (West Nile Virus): > 100 µg/mL

C[C@@]1(O)C(O)[C@@H](CO)O[C@H]1n1ccc(=O)[nH]c1=S (stereo partly shown)
CC50 (CEM): > 200 µM | CC50 (Huh-7): > 100 µM | CC50 (HepG2): > 400 µM | CC50 (BxPC3): > 100 µM

CC1(O)[C@@H](O)[C@@H](CO)O[C@H]1n1ccc(=O)[nH]c1=S (stereo partly shown)
CC50 (Cytotoxicity (CC50) CEM): > 200 µM | CC50 [2]: > 100 µM | CC50 [3]: > 400 µM | CC50 [4]: > 100 µM | CC50 [5]: > 100 µM | CC50 [6]: > 100 µM | EC50 (Dengue Type 2 [7]): > 100 µM

CC(C)OC(=O)[C@H](C)N[P@](=O)(OC[C@H]1O[C@@H](n2ccc(=O)[nH]c2=S)C(C)(O)[C@H]1O)Oc1ccccc1 (stereo partly shown) [drawing 388]
CC50 (Cytotoxicity (CC50) CEM): > 400 µM | CC50 [2]: 252 µM | CC50 [3]: > 400 µM | CC50 [5]: > 100 µM | CC50 [6]: > 100 µM | EC50 (Dengue Type 2 [8]): 2.35 µM | EC50 (Dengue Type 2 [7]): 5.62 µM

CC(C)OC(=O)[C@H](C)N[P@@](=O)(OC[C@H]1O[C@@H](n2ccc(=O)[nH]c2=S)[C@](C)(O)C1O)Oc1ccccc1 (stereo partly shown)
CC50 (CEM): > 400 µM | CC50 (Huh-7): > 400 µM | CC50 (HepG2): > 400 µM

CC(C)OC(=O)[C@H](C)NP(=O)(OC[C@H]1O[C@@H](n2ccc(=O)[nH]c2=S)[C@](C)(O)C1O)Oc1ccccc1 (stereo partly shown) [drawing 369]
CC50 (A204): 98 µM | CC50 (IEC-6): > 200 µM | CC50 (BxPC3): > 300 µM

CC(C)OC(=O)[C@H](C)N[P@](=O)(OC[C@H]1O[C@@H](n2ccc(=O)[nH]c2=S)[C@](C)(O)C1O)Oc1ccccc1 (stereo partly shown) [drawing 384]
CC50 (GT1b replicon cells): > 10 µM

Cc1cn([C@@H]2O[C@H](CO)[C@H](O)C2F)c(=O)nc1N (stereo partly shown) [EFVX-01855]
EC50 (Influenza A H1N1): > 100 µM | EC50 (Influenza A H3N2): > 100 µM | EC50 [1]: > 100 µM | EC50 (Influenza B): > 100 µM | EC50 (RSV): > 100 µM | EC50 (SARS): > 100 µM | EC50 (Measles): > 100 µM | EC50 (CHIK Virus): > 100 µg/mL | EC50 (Dengue Virus): > 100 µg/mL | EC50 (RVFV): > 100 µg/mL | EC50 (Tacaribe Virus): > 100 µg/mL | EC50 (VEEV): > 100 µg/mL | EC50 (West Nile Virus): > 100 µg/mL

CC(C)OC(=O)[C@H](C)N[P@@](=O)(OC[C@H]1O[C@@H](n2ccc(=O)[nH]c2=O)[C@](C)(F)C1O)Oc1ccccc1 (stereo partly shown)
CC50 (CEM): > 400 µM | CC50 (Huh-7): > 400 µM | CC50 (HepG2): > 400 µM
